Molecular target: T1, SIRT1 (Homo sapiens, UniProt Q96EB6)
T1 sequence (Q96EB6 1-747): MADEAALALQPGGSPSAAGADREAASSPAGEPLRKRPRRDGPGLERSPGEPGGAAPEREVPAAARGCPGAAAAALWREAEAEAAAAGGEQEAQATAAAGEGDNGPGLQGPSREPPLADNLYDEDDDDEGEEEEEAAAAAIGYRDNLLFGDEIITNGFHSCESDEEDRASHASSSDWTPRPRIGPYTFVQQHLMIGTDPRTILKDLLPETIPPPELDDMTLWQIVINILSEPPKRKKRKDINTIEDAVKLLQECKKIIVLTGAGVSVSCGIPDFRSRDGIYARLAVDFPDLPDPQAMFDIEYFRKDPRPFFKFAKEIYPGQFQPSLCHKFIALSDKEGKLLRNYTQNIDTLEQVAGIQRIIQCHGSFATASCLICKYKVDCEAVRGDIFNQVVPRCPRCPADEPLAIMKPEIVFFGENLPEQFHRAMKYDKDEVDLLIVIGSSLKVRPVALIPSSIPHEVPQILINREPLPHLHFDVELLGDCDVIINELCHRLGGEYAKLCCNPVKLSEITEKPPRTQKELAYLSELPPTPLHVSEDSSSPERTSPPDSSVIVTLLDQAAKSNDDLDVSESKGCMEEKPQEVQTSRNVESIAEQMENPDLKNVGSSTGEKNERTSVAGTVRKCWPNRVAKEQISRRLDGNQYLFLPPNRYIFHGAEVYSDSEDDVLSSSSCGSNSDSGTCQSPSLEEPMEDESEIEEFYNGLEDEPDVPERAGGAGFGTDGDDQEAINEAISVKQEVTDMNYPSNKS
Assay: Mass spectrometry based assay to identify modulators of SIRT1 activity (deacetylation of p53-based acetylated peptide substrate)
Assay type: biochemical
Conditions: 10 nM SIRT1, 0.5 μM peptide substrate, 120 μM βNAD+, 25 minutes at 25° C.; for EC1.5: SIRT1 activation
Source text: A mass spectrometry based assay was used to identify modulators of SIRT1 activity. The mass spectrometry based assay utilizes a peptide having 20 amino acid residues as follows: Ac-EE-K(biotin)-GQSTSSHSK(Ac)NleSTEG-K(5TMR)-EE-NH2 (SEQ ID NO: 1) wherein K(Ac) is an acetylated lysine residue and Nle is a norleucine. The peptide is labeled with the fluorophore 5TMR (excitation 540 nm/emission 580 nm) at the C-terminus. The sequence of the peptide substrate is based on p53 with several modifications. In addition, the methionine residue naturally present in the sequence was replaced with the norleucine because the methionine may be susceptible to oxidation during synthesis and purification.
The mass spectrometry assay is conducted as follows: 0.5 μM peptide substrate and 120 μM βNAD^+ is incubated with 10 nM SIRT1 for 25 minutes at 25° C. in a reaction buffer (50 mM Tris-acetate pH 8, 137 mM NaCl, 2.7 mM KCl, 1 mM MgCl2, 5 mM DTT, 0.05% BSA). Test compounds may be added to the reaction as described above. The SirT1 gene is cloned into a T7-promoter containing vector and transformed into BL21(DE3). After the 25 minute incubation with SIRT1, 10 μL of 10% formic acid is added to stop the reaction. Reactions are sealed and frozen for later mass spec analysis. Determination of the mass of the substrate peptide allows for precise determination of the degree of acetylation (i.e. starting material) as compared to deacetylated peptide (product).
A control for inhibition of sirtuin activity is conducted by adding 1 μL of 500 mM nicotinamide as a negative control at the start of the reaction (e.g., permits determination of maximum sirtuin inhibition). A control for activation of sirtuin activity is conducted using 10 nM of sirtuin protein, with 1 μL of DMSO in place of compound, to determine the amount of deacetylation of the substrate at a given timepoint within the linear range of the assay. This timepoint is the same as that used for test compounds and, within the linear range, the endpoint represents a change in velocity.
For the above assay, SIRT1 protein was expressed and purified as follows. The SirT1 gene was cloned into a T7-promoter containing vector and transformed into BL21(DE3). The protein was expressed by induction with 1 mM IPTG as an N-terminal His-tag fusion protein at 18° C. overnight and harvested at 30,000×g. Cells were lysed with lysozyme in lysis buffer (50 mM Tris-HCl, 2 mM Tris[2-carboxyethyl]phosphine (TCEP), 10 μM ZnCl2, 200 mM NaCl) and further treated with sonication for 10 min for complete lysis. The protein was purified over a Ni-NTA column (Amersham) and fractions containing pure protein were pooled, concentrated and run over a sizing column (Sephadex S200 26/60 global). The peak containing soluble protein was collected and run on an Ion-exchange column (MonoQ). Gradient elution (200 mM-500 mM NaCl) yielded pure protein. This protein was concentrated and dialyzed against dialysis buffer (20 mM Tris-HCl, 2 mM TCEP) overnight. The protein was aliquoted and frozen at −80° C. until further use.
Sirtuin modulating compounds that activated SIRT1 were identified using the assay described above and are shown below in Table 1. The EC1-5 values for the activating compounds are represented by A′ (EC1.5<250 nM), A (EC1.5≧250 nM and ≦1 uM), B (EC1.5>1 and ≦10 uM), or C (EC1.5>10 uM). The percent maximum fold activation is represented by A (Fold activation≧300%), B (Fold Activation≧150% and <300%), or C (Fold Activation<150%).

Structure (SMILES): O=C(Nc1ccccc1-c1nc2cccnc2s1)c1cc(N2CCNCC2)nc(-c2ccccc2)n1 [Compound 1]
- FOLD ACT. (percent maximum fold activation): A (Fold activation≧300%)
- EC1.5: A′ (EC1.5<250 nM)

Structure (SMILES): O=C(Nc1ccccc1-c1nc2cccnc2s1)c1cc(N2CCOCC2)nc(-c2ccccc2)n1 [Compound 2]
- FOLD ACT. (percent maximum fold activation): B (Fold Activation≧150% and <300%)
- EC1.5: A′ (EC1.5<250 nM)

Structure (SMILES): COCCN1CCN(c2cc(C(=O)Nc3ccccc3-c3nc4cccnc4s3)nc(-c3ccccc3)n2)CC1 [Compound 3]
- FOLD ACT. (percent maximum fold activation): A (Fold activation≧300%)
- EC1.5: A′ (EC1.5<250 nM)

Structure (SMILES): COCCN1CCN(c2cc(C(=O)Nc3ccccc3-c3nc4cccnc4s3)nc(Cl)n2)CC1 [Compound 4]
- FOLD ACT. (percent maximum fold activation): A (Fold activation≧300%)
- EC1.5: A (EC1.5≧250 nM and ≦1 uM)

Structure (SMILES): COCCN1CCN(c2cc(C(=O)Nc3ccccc3-c3nc4cccnc4s3)nc(OC)n2)CC1 [Compound 5]
- FOLD ACT. (percent maximum fold activation): A (Fold activation≧300%)
- EC1.5: A (EC1.5≧250 nM and ≦1 uM)

Structure (SMILES): O=C(Nc1ccccc1-c1nc2cccnc2s1)c1cc(OC2CNC2)cc(-c2ccccc2)n1 [Compound 6]
- FOLD ACT. (percent maximum fold activation): A (Fold activation≧300%)
- EC1.5: A (EC1.5≧250 nM and ≦1 uM)

Structure (SMILES): O=C(Nc1ccccc1-c1nc2cccnc2s1)c1cc(OCCN2CCS(=O)(=O)CC2)cc(-c2ccccc2)n1 [Compound 7]
- FOLD ACT. (percent maximum fold activation): A (Fold activation≧300%)
- EC1.5: A′ (EC1.5<250 nM)

Structure (SMILES): O=C(Nc1ccccc1-c1nc2cccnc2s1)c1cc(Cl)nc(-c2ccccc2)n1 [Compound 8]
- FOLD ACT. (percent maximum fold activation): C (Fold Activation<150%)
- EC1.5: C (EC1.5>10 uM)

Structure (SMILES): CN(C)CCNc1cc(C(=O)Nc2ccccc2-c2nc3cccnc3s2)nc(-c2ccccc2)n1 [Compound 9]
- FOLD ACT. (percent maximum fold activation): A (Fold activation≧300%)
- EC1.5: A′ (EC1.5<250 nM)

Structure (SMILES): O=C(Nc1ccccc1-c1nc2cccnc2s1)c1cc(CN2CCOCC2)nc(-c2ccccc2)n1 [Compound 10]
- FOLD ACT. (percent maximum fold activation): A (Fold activation≧300%)
- EC1.5: A (EC1.5≧250 nM and ≦1 uM)

Structure (SMILES): O=C(Nc1ccccc1-c1nc2cccnc2s1)c1cc(CN2CCCC2)nc(-c2ccccc2)n1 [Compound 11]
- FOLD ACT. (percent maximum fold activation): A (Fold activation≧300%)
- EC1.5: B (EC1.5>1 and ≦10 uM)

Structure (SMILES): COCCN1CCN(CCOc2cc(C(=O)Nc3ccccc3-c3nc4cccnc4s3)nc(-c3ccccc3)c2)CC1 [Compound 12]
- FOLD ACT. (percent maximum fold activation): A (Fold activation≧300%)
- EC1.5: A′ (EC1.5<250 nM)

Structure (SMILES): O=C(Nc1ccccc1-c1nc2cccnc2s1)c1cc(OCCN2CCOCC2)cc(-c2ccccc2)n1 [Compound 13]
- FOLD ACT. (percent maximum fold activation): A (Fold activation≧300%)
- EC1.5: A (EC1.5≧250 nM and ≦1 uM)

Structure (SMILES): O=C(Nc1ccccc1-c1nc2cccnc2s1)c1cc(OCCN2CCNCC2)cc(-c2ccccc2)n1 [Compound 14]
- FOLD ACT. (percent maximum fold activation): A (Fold activation≧300%)
- EC1.5: A′ (EC1.5<250 nM)

Structure (SMILES): COCCNc1cc(C(=O)Nc2ccccc2-c2nc3cccnc3s2)nc(-c2ccccc2)n1 [Compound 15]
- FOLD ACT. (percent maximum fold activation): A (Fold activation≧300%)
- EC1.5: A (EC1.5≧250 nM and ≦1 uM)

Structure (SMILES): O=C(Nc1ccccc1-c1nc2cccnc2s1)c1cc(N2CCS(=O)(=O)CC2)nc(-c2ccccc2)n1 [Compound 16]
- FOLD ACT. (percent maximum fold activation): B (Fold Activation≧150% and <300%)
- EC1.5: A (EC1.5≧250 nM and ≦1 uM)

Structure (SMILES): COC(=O)CNc1cc(C(=O)Nc2ccccc2-c2nc3cccnc3s2)nc(-c2ccccc2)n1 [Compound 17]
- FOLD ACT. (percent maximum fold activation): A (Fold activation≧300%)
- EC1.5: A (EC1.5≧250 nM and ≦1 uM)

Structure (SMILES): CCOc1cc(C(=O)Nc2ccccc2-c2nc3cccnc3s2)nc(-c2ccccc2)n1 [Compound 18]
- FOLD ACT. (percent maximum fold activation): C (Fold Activation<150%)
- EC1.5: C (EC1.5>10 uM)

Structure (SMILES): CC(C)CNc1cc(C(=O)Nc2ccccc2-c2nc3cccnc3s2)nc(-c2ccccc2)n1 [Compound 19]
- FOLD ACT. (percent maximum fold activation): C (Fold Activation<150%)
- EC1.5: C (EC1.5>10 uM)

Structure (SMILES): O=C(Nc1ccccc1-c1nc2cccnc2s1)c1cc(NC2CCCC2)nc(-c2ccccc2)n1 [Compound 20]
- FOLD ACT. (percent maximum fold activation): C (Fold Activation<150%)
- EC1.5: C (EC1.5>10 uM)

Structure (SMILES): O=C(Nc1ccccc1-c1nc2cccnc2s1)c1cc(N2CCCCC2)nc(-c2ccccc2)n1 [Compound 21]
- FOLD ACT. (percent maximum fold activation): C (Fold Activation<150%)
- EC1.5: C (EC1.5>10 uM)

Structure (SMILES): O=C(Nc1ccccc1-c1nc2ccncc2s1)c1cc(N2CCOCC2)nc(-c2ccccc2)n1 [Compound 22]
- FOLD ACT. (percent maximum fold activation): A (Fold activation≧300%)
- EC1.5: A (EC1.5≧250 nM and ≦1 uM)

Structure (SMILES): O=C(Nc1ccccc1-c1nc2ccncc2s1)c1cc(N2CCNCC2)nc(-c2ccccc2)n1 [Compound 23]
- FOLD ACT. (percent maximum fold activation): A (Fold activation≧300%)
- EC1.5: A′ (EC1.5<250 nM)

Structure (SMILES): CC(C)N1CCN(c2cc(C(=O)Nc3ccccc3-c3nc4ccncc4s3)nc(-c3ccccc3)n2)CC1 [Compound 24]
- FOLD ACT. (percent maximum fold activation): A (Fold activation≧300%)
- EC1.5: A′ (EC1.5<250 nM)

Structure (SMILES): COCCN1CCN(c2cc(C(=O)Nc3ccccc3-c3nc4ccncc4s3)nc(-c3ccccc3)n2)CC1 [Compound 25]
- FOLD ACT. (percent maximum fold activation): A (Fold activation≧300%)
- EC1.5: A′ (EC1.5<250 nM)

Structure (SMILES): CN(C)CCNc1cc(C(=O)Nc2ccccc2-c2nc3cccnc3s2)ncn1 [Compound 26]
- FOLD ACT. (percent maximum fold activation): A (Fold activation≧300%)
- EC1.5: B (EC1.5>1 and ≦10 uM)

Structure (SMILES): COCCNc1cc(C(=O)Nc2ccccc2-c2nc3ccncc3s2)nc(-c2ccccc2)n1 [Compound 27]
- FOLD ACT. (percent maximum fold activation): A (Fold activation≧300%)
- EC1.5: A (EC1.5≧250 nM and ≦1 uM)

Structure (SMILES): Cc1nc(NCCN(C)C)cc(C(=O)Nc2ccccc2-c2nc3cccnc3s2)n1 [Compound 28]
- FOLD ACT. (percent maximum fold activation): A (Fold activation≧300%)
- EC1.5: B (EC1.5>1 and ≦10 uM)

Structure (SMILES): COCCN(C)c1cc(C(=O)Nc2ccccc2-c2nc3ccncc3s2)nc(-c2ccccc2)n1 [Compound 29]
- FOLD ACT. (percent maximum fold activation): A (Fold activation≧300%)
- EC1.5: A′ (EC1.5<250 nM)

Structure (SMILES): O=C(Nc1ccccc1-c1nc2ccncc2s1)c1cc(NCCN2CCOCC2)nc(-c2ccccc2)n1 [Compound 30]
- FOLD ACT. (percent maximum fold activation): A (Fold activation≧300%)
- EC1.5: A (EC1.5≧250 nM and ≦1 uM)

Structure (SMILES): O=C(Nc1ccccc1-c1nc2ccncc2s1)c1cc(NCc2cccnc2)nc(-c2ccccc2)n1 [Compound 31]
- FOLD ACT. (percent maximum fold activation): B (Fold Activation≧150% and <300%)
- EC1.5: A (EC1.5≧250 nM and ≦1 uM)

From US20110009381A1, “SOLUBILIZED THIAZOLOPYRIDINES” (Sirtis Pharmaceuticals, Inc., priority 2007, published 2011)
